Our source for the T/C values is PubChem BioAssay AID270 (DTP/NCI, 2004).

For this assay, the system named is BDF1 mice, s.c. Lewis lung carcinoma, T/C %. The assay is described as follows: NCI In Vivo Anticancer Drug Screen. Data for tumor model Lewis Lung Carcinoma (subcutaneous) in B6D2F1 (BDF1) mice. The gist of the method: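 Tumor-bearing mice were treated with test compound, and either survival or tumor size was recorded. Values are the treated-group measurement divided by that of the vehicle-treated control group.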

Where [1] appears, read: endpoint: mean tumor weight, dose: 50.0 mg/kg/injection, schedule: Q01DX011 (ip), vehicle: carboxymethylcellulose (CMC), higher = larger tumour.

Where “and” joins values, the source holds several entries; their conditions need not be identical. Equal entries are not always repeated. Inconclusive results are not listed.

`C[C@]12CC[C@H](O)C[C@@]1(O)CC[C@@H]1[C@@H]2CC[C@]2(C)[C@@H](c3ccc(=O)oc3)CC[C@]12O`: the T/C is 97 % of control (endpoint: median survival time, dose: 1.25 mg/kg/injection, schedule: Q01DX009 (ip), vehicle: Klucel (hydroxypropylcellulose) (HPC), higher = longer survival); 98 % of control (endpoint: median survival time, dose: 2.5 mg/kg/injection, schedule: Q01DX009 (ip), vehicle: Klucel (hydroxypropylcellulose) (HPC), higher = longer survival); 104 % of control (endpoint: median survival time, dose: 10.0 mg/kg/injection, schedule: Q01DX009 (ip), vehicle: Klucel (hydroxypropylcellulose) (HPC), higher = longer survival); 113 % of control (endpoint: median survival time, dose: 20.0 mg/kg/injection, schedule: Q01DX009 (ip), vehicle: Klucel (hydroxypropylcellulose) (HPC), higher = longer survival).

For the compound `Nc1ccn(C2OC(CO)C(O)C2O)c(=O)n1` (stereo not given), the T/C is, setting by setting: (endpoint: mean tumor weight, dose: 20.0 mg/kg/injection, schedule: Q01DX011 (ip), vehicle: saline, higher = larger tumour) 55 % of control; (endpoint: mean tumor weight, dose: 40.0 mg/kg/injection, schedule: Q01DX011 (ip), vehicle: saline, higher = larger tumour) 40 % of control; (endpoint: median survival time, dose: 1.0 mg/kg/injection, schedule: Q01DX011 (adlb), vehicle: water, higher = longer survival) 110 % of control; (endpoint: median survival time, dose: 2.0 mg/kg/injection, schedule: Q01DX011 (adlb), vehicle: water, higher = longer survival) 100 % of control; (endpoint: median tumor weight (est.), dose: 2.7 mg/kg/injection, schedule: Q03HX032 (ip), vehicle: saline, higher = larger tumour) 43 % of control; (endpoint: median tumor weight (est.), dose: 4.0 mg/kg/injection, schedule: Q03HX024 (ip), vehicle: saline, higher = larger tumour) 50 % of control. Besides, the T/C runs as follows: (endpoint: median tumor weight (est.), dose: 4.0 mg/kg/injection, schedule: Q03HX032 (ip), vehicle: saline, higher = larger tumour) 36 % of control; (endpoint: median tumor weight (est.), dose: 5.3 mg/kg/injection, schedule: Q03HX016 (ip), vehicle: saline, higher = larger tumour) 59 % of control; (endpoint: median tumor weight (est.), dose: 6.0 mg/kg/injection, schedule: Q03HX024 (ip), vehicle: saline, higher = larger tumour) 34 % of control; (endpoint: median tumor weight (est.), dose: 8.0 mg/kg/injection, schedule: Q03HX016 (ip), vehicle: saline, higher = larger tumour) 67 % of control; (endpoint: median tumor weight (est.), dose: 10.0 mg/kg/injection, schedule: Q03HX008 (ip), vehicle: saline, higher = larger tumour) 62 % of control; (endpoint: median tumor weight (est.), dose: 10.0 mg/kg/injection, schedule: Q03HX032 (ip), vehicle: saline, higher = larger tumour) 59 % of control. For the same compound, the T/C runs as follows: (endpoint: median tumor weight (est.), dose: 12.0 mg/kg/injection, schedule: Q03HX016 (ip), vehicle: saline, higher = larger tumour) 32 % of control; (endpoint: median tumor weight (est.), dose: 12.5 mg/kg/injection, schedule: Q01DX009 (ip), vehicle: saline, higher = larger tumour) 93 % of control; (endpoint: median tumor weight (est.), dose: 15.0 mg/kg/injection, schedule: Q03HX032 (ip), vehicle: saline, higher = larger tumour) 55 % of control; (endpoint: median tumor weight (est.), dose: 16.0 mg/kg/injection, schedule: Q03HX008 (ip), vehicle: saline, higher = larger tumour) 57 % of control; (endpoint: median tumor weight (est.), dose: 20.0 mg/kg/injection, schedule: Q01DX015 (ip), vehicle: saline, higher = larger tumour) 74 % of control; (endpoint: median tumor weight (est.), dose: 20.0 mg/kg/injection, schedule: Q06HX020 (ip), vehicle: saline, higher = larger tumour) 70 % of control. In addition, the T/C reads like this: (endpoint: median tumor weight (est.), dose: 20.0 mg/kg/injection, schedule: Q12HX027 (ip), vehicle: saline, higher = larger tumour) 62 % of control; (endpoint: median tumor weight (est.), dose: 22.5 mg/kg/injection, schedule: Q03HX032 (ip), vehicle: saline, higher = larger tumour) 48 % of control; (endpoint: median tumor weight (est.), dose: 24.0 mg/kg/injection, schedule: Q03HX008 (ip), vehicle: saline, higher = larger tumour) 54 % of control; (endpoint: median tumor weight (est.), dose: 25.0 mg/kg/injection, schedule: Q01DX009 (ip), vehicle: saline, higher = larger tumour) 100 % of control; (endpoint: median tumor weight (est.), dose: 26.0 mg/kg/injection, schedule: Q01DX011 (ip), vehicle: saline, higher = larger tumour) 68 % of control; (endpoint: median tumor weight (est.), dose: 30.0 mg/kg/injection, schedule: Q01DX015 (ip), vehicle: saline, higher = larger tumour) 67 % of control. For the same compound, the T/C runs as follows: (endpoint: median tumor weight (est.), dose: 30.0 mg/kg/injection, schedule: Q06HX020 (ip), vehicle: saline, higher = larger tumour) 45 % of control; (endpoint: median tumor weight (est.), dose: 36.0 mg/kg/injection, schedule: Q03HX008 (ip), vehicle: saline, higher = larger tumour) 24 % of control; (endpoint: median tumor weight (est.), dose: 38.0 mg/kg/injection, schedule: Q01DX011 (ip), vehicle: saline, higher = larger tumour) 75 % of control; (endpoint: median tumor weight (est.), dose: 45.0 mg/kg/injection, schedule: Q01DX015 (ip), vehicle: saline, higher = larger tumour) 73 % of control; (endpoint: median tumor weight (est.), dose: 45.0 mg/kg/injection, schedule: Q06HX020 (ip), vehicle: saline, higher = larger tumour) 30 % of control; (endpoint: median tumor weight (est.), dose: 50.0 mg/kg/injection, schedule: Q01DX009 (ip), vehicle: saline, higher = larger tumour) 60 % of control. Besides, the T/C reads like this: (endpoint: median tumor weight (est.), dose: 150.0 mg/kg/injection, schedule: Q12HX012 (ip), vehicle: saline, higher = larger tumour) 5 % of control; (endpoint: median tumor weight (est.), dose: 220.0 mg/kg/injection, schedule: Q12HX012 (ip), vehicle: saline, higher = larger tumour) 2 % of control; (endpoint: median tumor weight (est.), dose: 250.0 mg/kg/injection, schedule: Q04DX003 (ip), vehicle: saline, higher = larger tumour) 74 % of control; (endpoint: median tumor weight (est.), dose: 1000.0 mg/kg/injection, schedule: Q04DX003 (ip), vehicle: saline, higher = larger tumour) 64 % of control.

On to `COc1cc(NS(C)(=O)=O)ccc1Nc1c2ccc(Cl)cc2nc2c(OC)cccc12`, for which the T/C (endpoint: median survival time, dose: 2.3 mg/kg/injection, schedule: Q01DX009 (ip), vehicle: other, higher = longer survival) is 118 % of control.

Regarding `Cc1cc(O)c(C(C)C)cc1S(=O)(=O)O` (tested in a mixture with another compound), the T/C is 95 % of control (endpoint: mean tumor weight, dose: 25.0 mg/kg/injection, schedule: Q01DX011 (ip), vehicle: other, higher = larger tumour); 105 % of control (endpoint: mean tumor weight, dose: 50.0 mg/kg/injection, schedule: Q01DX011 (ip), vehicle: other, higher = larger tumour); 114 % of control (endpoint: mean tumor weight, dose: 100.0 mg/kg/injection, schedule: Q01DX011 (ip), vehicle: other, higher = larger tumour); 98 % of control (endpoint: mean tumor weight, dose: 200.0 mg/kg/injection, schedule: Q01DX011 (ip), vehicle: other, higher = larger tumour).

`CCN(CC)C(=S)S.[Te]`: the T/C is 24 % of control and 36 % of control under setting [1]; 10 % of control (endpoint: mean tumor weight, dose: 200.0 mg/kg/injection, schedule: Q01DX011 (ip), vehicle: carboxymethylcellulose (CMC), higher = larger tumour).

Take `COC(=O)c1ccccc1NC(c1ccccn1)c1ccc2cccnc2c1O` (stereo not given): the T/C runs as follows: (endpoint: mean tumor weight, dose: 10.0 mg/kg/injection, schedule: Q01DX011 (ip), vehicle: carboxymethylcellulose (CMC), higher = larger tumour) 55 % of control; (endpoint: mean tumor weight, dose: 25.0 mg/kg/injection, schedule: Q01DX011 (ip), vehicle: carboxymethylcellulose (CMC), higher = larger tumour) 111 % of control; (endpoint: mean tumor weight, dose: 37.0 mg/kg/injection, schedule: Q01DX011 (ip), vehicle: carboxymethylcellulose (CMC), higher = larger tumour) 115 % of control; under setting [1], 56 % of control; (endpoint: mean tumor weight, dose: 62.0 mg/kg/injection, schedule: Q01DX011 (ip), vehicle: carboxymethylcellulose (CMC), higher = larger tumour) 30 % of control; (endpoint: mean tumor weight, dose: 70.0 mg/kg/injection, schedule: Q01DX011 (ip), vehicle: carboxymethylcellulose (CMC), higher = larger tumour) 78 % of control. Moreover, the T/C runs as follows: (endpoint: mean tumor weight, dose: 75.0 mg/kg/injection, schedule: Q01DX011 (ip), vehicle: carboxymethylcellulose (CMC), higher = larger tumour) 86 % of control; (endpoint: mean tumor weight, dose: 125.0 mg/kg/injection, schedule: Q01DX011 (ip), vehicle: carboxymethylcellulose (CMC), higher = larger tumour) 33 % of control; (endpoint: mean tumor weight, dose: 150.0 mg/kg/injection, schedule: Q01DX011 (ip), vehicle: carboxymethylcellulose (CMC), higher = larger tumour) 80 % of control; (endpoint: mean tumor weight, dose: 250.0 mg/kg/injection, schedule: Q01DX011 (ip), vehicle: carboxymethylcellulose (CMC), higher = larger tumour) 76 % of control; (endpoint: mean tumor weight, dose: 300.0 mg/kg/injection, schedule: Q01DX011 (ip), vehicle: carboxymethylcellulose (CMC), higher = larger tumour) 62 % of control; (endpoint: mean tumor weight, dose: 500.0 mg/kg/injection, schedule: Q01DX011 (ip), vehicle: carboxymethylcellulose (CMC), higher = larger tumour) 53 % of control.

With `C[C@]12C=CC(=O)C=C1CC[C@@H]1[C@@H]2[C@@H](O)C[C@@]2(C)[C@H]1CC[C@]2(O)C(=O)COC(=O)C1CCCC1`, the T/C by setting is: (endpoint: mean tumor weight, dose: 9.0 mg/kg/injection, schedule: Q01DX011 (sc), vehicle: steriod suspending solution, higher = larger tumour) 68 % of control; (endpoint: mean tumor weight, dose: 13.0 mg/kg/injection, schedule: Q01DX011 (sc), vehicle: steriod suspending solution, higher = larger tumour) 51 % of control; (endpoint: mean tumor weight, dose: 20.0 mg/kg/injection, schedule: Q01DX011 (sc), vehicle: steriod suspending solution, higher = larger tumour) 77 % of control; (endpoint: mean tumor weight, dose: 30.0 mg/kg/injection, schedule: Q01DX011 (sc), vehicle: steriod suspending solution, higher = larger tumour) 52 % of control.

As to `CC[n+]1ccc(Nc2ccc(NC(=O)c3ccc(Nc4cc[n+](CC)c5ccc(N)cc45)cc3)cc2)cc1`, the T/C (endpoint: mean tumor weight, dose: 0.5 mg/kg/injection, schedule: Q01DX011 (ip), vehicle: saline, higher = larger tumour) was 86 % of control; the T/C (endpoint: mean tumor weight, dose: 1.0 mg/kg/injection, schedule: Q01DX011 (ip), vehicle: saline, higher = larger tumour) was 107 % of control; the T/C (endpoint: mean tumor weight, dose: 2.0 mg/kg/injection, schedule: Q01DX011 (ip), vehicle: saline, higher = larger tumour) is 73 % of control; the T/C (endpoint: mean tumor weight, dose: 4.0 mg/kg/injection, schedule: Q01DX011 (ip), vehicle: saline, higher = larger tumour) is 33 % of control.
